From the NIST ThermoML archive (doi:10.1016/j.jct.2013.09.035)

Test: wn = mass fraction of the nth substance listed
Details: Liquid, Vibrating tube method, w2 = 0.5

CCOC(F)(F)C(F)(C(F)(F)F)C(F)(F)F [nonafluoroisobutyl ethyl ether] + CCOC(F)(F)C(F)(F)C(F)(F)C(F)(F)F
Details | mass density [kg/m3]
283.47 K, 10000 kPa | 1482.27
283.48 K, 100 kPa | 1457.82
283.48 K, 1000 kPa | 1460.24
283.48 K, 3000 kPa | 1465.3
283.48 K, 5000 kPa | 1470.22
283.48 K, 25000 kPa | 1513.47
283.48 K, 30000 kPa | 1522.25
283.49 K, 15000 kPa | 1493.18
283.49 K, 20000 kPa | 1503.4
283.49 K, 40000 kPa | 1538.97
283.49 K, 50000 kPa | 1553.61
283.49 K, 80000 kPa | 1591.2
283.49 K, 90000 kPa | 1602.13
283.49 K, 100000 kPa | 1612.51
283.5 K, 60000 kPa | 1567.59
283.5 K, 70000 kPa | 1579.58
293.33 K, 40000 kPa | 1520.74
293.33 K, 50000 kPa | 1536.34
293.34 K, 100 kPa | 1433.67
293.34 K, 3000 kPa | 1442.2
293.34 K, 5000 kPa | 1447.74
293.34 K, 10000 kPa | 1460.66
293.34 K, 25000 kPa | 1493.61
293.34 K, 80000 kPa | 1575.81
293.35 K, 15000 kPa | 1472.51
293.35 K, 20000 kPa | 1483.44
293.35 K, 70010 kPa | 1563.65
293.35 K, 100000 kPa | 1597.56
293.36 K, 1000 kPa | 1436.34
293.36 K, 30000 kPa | 1503.18
293.36 K, 60000 kPa | 1550.72
293.36 K, 90000 kPa | 1586.86
303.23 K, 100 kPa | 1410.99
303.23 K, 1000 kPa | 1413.95
303.23 K, 3000 kPa | 1420.34
303.23 K, 5000 kPa | 1426.43
303.23 K, 10000 kPa | 1440.51
303.23 K, 15000 kPa | 1453.28
303.23 K, 30000 kPa | 1485.94
303.23 K, 40000 kPa | 1504.31
303.23 K, 70000 kPa | 1549.38
303.23 K, 90000 kPa | 1573.69
303.23 K, 100000 kPa | 1584.73
303.24 K, 20000 kPa | 1464.95
303.24 K, 25000 kPa | 1475.81
303.24 K, 50000 kPa | 1520.78
303.24 K, 60000 kPa | 1535.65
303.24 K, 80000 kPa | 1561.98
313.14 K, 40000 kPa | 1487.04
313.15 K, 25000 kPa | 1456.84
313.15 K, 50000 kPa | 1504.3
313.15 K, 60000 kPa | 1519.95
313.16 K, 15000 kPa | 1432.86
313.16 K, 20000 kPa | 1445.3
313.16 K, 30000 kPa | 1467.53
313.17 K, 1000 kPa | 1390.04
313.17 K, 5000 kPa | 1403.68
313.17 K, 10000 kPa | 1418.95
313.17 K, 100000 kPa | 1571.77
313.18 K, 100 kPa | 1386.8
313.18 K, 3000 kPa | 1397.04
313.18 K, 90000 kPa | 1559.98
313.19 K, 70000 kPa | 1535.1
313.19 K, 80000 kPa | 1547.94
323.03 K, 70000 kPa | 1522.41
323.03 K, 79990 kPa | 1535.93
323.03 K, 90000 kPa | 1548.47
323.03 K, 100000 kPa | 1560.39
323.04 K, 15000 kPa | 1415.6
323.04 K, 20000 kPa | 1429.06
323.04 K, 25000 kPa | 1441.36
323.04 K, 30000 kPa | 1452.73
323.04 K, 40000 kPa | 1473.17
323.04 K, 50000 kPa | 1491.32
323.04 K, 60000 kPa | 1507.67
323.05 K, 100 kPa | 1365.33
323.05 K, 1000 kPa | 1368.99
323.05 K, 3000 kPa | 1376.71
323.05 K, 5000 kPa | 1384.07
323.05 K, 10000 kPa | 1400.75
332.93 K, 80000 kPa | 1522.17
332.93 K, 90000 kPa | 1535.21
332.93 K, 100000 kPa | 1547.28
332.94 K, 15000 kPa | 1395.61
332.94 K, 20000 kPa | 1409.99
332.94 K, 25000 kPa | 1423.08
332.94 K, 30000 kPa | 1435.1
332.94 K, 40000 kPa | 1456.69
332.94 K, 50000 kPa | 1475.63
332.94 K, 60000 kPa | 1492.7
332.94 K, 70000 kPa | 1508.09
332.95 K, 100 kPa | 1340.66
332.95 K, 1000 kPa | 1344.7
332.95 K, 3000 kPa | 1353.32
332.95 K, 5000 kPa | 1361.37
332.95 K, 10000 kPa | 1379.59
342.83 K, 100 kPa | 1316.31
342.83 K, 3000 kPa | 1330.5
342.84 K, 1000 kPa | 1320.87
342.84 K, 5000 kPa | 1339.38
342.85 K, 10000 kPa | 1359.29
342.85 K, 15000 kPa | 1376.59
342.85 K, 20000 kPa | 1391.96
342.86 K, 25000 kPa | 1405.93
342.86 K, 30000 kPa | 1418.67
342.86 K, 40000 kPa | 1441.37
342.87 K, 60000 kPa | 1479.04
342.87 K, 69990 kPa | 1494.97
342.87 K, 80000 kPa | 1509.52
342.88 K, 50000 kPa | 1461.22
342.88 K, 90000 kPa | 1522.96
342.88 K, 100000 kPa | 1535.5
352.77 K, 3000 kPa | 1307.3
352.78 K, 1000 kPa | 1296.47
352.78 K, 5000 kPa | 1317.18
352.78 K, 10000 kPa | 1339.03
352.78 K, 15000 kPa | 1357.74
352.78 K, 20000 kPa | 1374.27
352.78 K, 25000 kPa | 1389.09
352.78 K, 30000 kPa | 1402.65
352.78 K, 40000 kPa | 1426.56
352.78 K, 50000 kPa | 1447.34
352.78 K, 60000 kPa | 1465.76
352.79 K, 70000 kPa | 1482.51
352.79 K, 80000 kPa | 1497.6
352.79 K, 90000 kPa | 1511.48
352.79 K, 100000 kPa | 1524.4
362.72 K, 1000 kPa | 1270.63
362.72 K, 3000 kPa | 1282.75
362.73 K, 5000 kPa | 1293.79
362.73 K, 10000 kPa | 1317.75
362.73 K, 15000 kPa | 1338.07
362.73 K, 20000 kPa | 1355.77
362.73 K, 25000 kPa | 1371.52
362.73 K, 30000 kPa | 1385.83
362.73 K, 40000 kPa | 1410.97
362.73 K, 50000 kPa | 1432.73
362.73 K, 60000 kPa | 1451.97
362.73 K, 70000 kPa | 1469.11
362.73 K, 80000 kPa | 1484.73
362.73 K, 90000 kPa | 1499.1
362.73 K, 100000 kPa | 1512.38
